Source: the supplement of paper PMC10307832

How the values were obtained:
Assay in all cases: relative viability (nuclei count vs DMSO), 5 days (fraction); higher = more cells survive
[1] = compound: COc1cc2nc(N3CCCN(C)CC3)nc(NC3CCN(Cc4ccccc4)CC3)c2cc1OC + C[C@@H](Oc1cc(-c2cnn(C3CCNCC3)c2)cnc1N)c1c(Cl)ccc(F)c1Cl [Crizotinib] (partner 1 µM)
Method in brief: (§1)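 Nuclei were stained with Hoechst during a one-step fixation (final 0.05% Triton X-100, 1% formaldehyde, 1 ug/ml Hoechst) carried out 5 days after dosing, then counted on 4× images. The cells, lung cancer lines in 1536-well plates, had been dosed by pin tool the day after seeding with one drug alone or a fixed anchor-drug dose plus five library-drug doses (not always all listed) in √10 steps. Relative viability is the nuclei count in treated wells divided by that in vehicle wells, and each value is the median of duplicate plates.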

[2] = compound: COc1cc2nc(N3CCCN(C)CC3)nc(NC3CCN(Cc4ccccc4)CC3)c2cc1OC + CC(=O)c1c(C)c2cnc(Nc3ccc(N4CCNCC4)cn3)nc2n(C2CCCC2)c1=O [Palbociclib] (partner 0.5 µM)
Method in brief: as §1

AZD6482 + Vorinostat = compound: Cc1cc([C@@H](C)Nc2ccccc2C(=O)O)c2nc(N3CCOCC3)cc(=O)n2c1 [AZD6482] + O=C(CCCCCCC(=O)Nc1ccccc1)NO [Vorinostat] (partner 1 µM)
Method in brief: as §1

AZD6482 + Bortezomib = compound: Cc1cc([C@@H](C)Nc2ccccc2C(=O)O)c2nc(N3CCOCC3)cc(=O)n2c1 [AZD6482] + CC(C)C[C@H](NC(=O)[C@H](Cc1ccccc1)NC(=O)c1cnccn1)B(O)O [Bortezomib] (partner 0.002 µM)
Method in brief: as §1

Cell Line | relative viability ([1]; first compound 0.2 µM) | relative viability ([1]; first compound 0.6325 µM) | relative viability ([1]; first compound 2 µM) | relative viability ([1]; first compound 6.325 µM) | relative viability ([2]; first compound 0.2 µM) | relative viability ([2]; first compound 0.6325 µM) | relative viability ([2]; first compound 2 µM) | relative viability ([2]; first compound 6.325 µM) | relative viability (AZD6482 + Vorinostat; first compound 0.08 µM) | relative viability (AZD6482 + Vorinostat; first compound 0.253 µM) | relative viability (AZD6482 + Vorinostat; first compound 0.8 µM) | relative viability (AZD6482 + Vorinostat; first compound 2.53 µM) | relative viability (AZD6482 + Vorinostat; first compound 8 µM) | relative viability (AZD6482 + Bortezomib; first compound 0.08 µM) | relative viability (AZD6482 + Bortezomib; first compound 0.253 µM) | relative viability (AZD6482 + Bortezomib; first compound 0.8 µM) | relative viability (AZD6482 + Bortezomib; first compound 2.53 µM) | relative viability (AZD6482 + Bortezomib; first compound 8 µM)
NCI-H1666 | 0.969 | 0.958 | 0.981 | 0.886 | 0.644 | 0.633 | 0.648 | 0.633 | 0.848 | 1.04 | 1.04 | 0.813 | 1.02 | 0.515 | 0.765 | 0.737 | 0.556 | 0.616
NCI-H1734 | 0.66 | 0.602 | 0.687 | 0.661 | 0.375 | 0.367 | 0.292 | 0.38 | 0.804 | 0.68 | 0.801 | 0.52 | 0.582 | 0.791 | 0.893 | 0.977 | 0.525 | 0.556
NCI-H1755 | 0.868 | 0.792 | 0.919 | 0.814 | 0.446 | 0.452 | 0.393 | 0.399 | 0.691 | 0.638 | 0.742 | 0.495 | 0.566 | 0.837 | 0.962 | 0.434 | 0.639 | 0.74
NCI-H1915 | 0.909 | 0.825 | 0.947 | 0.866 | 0.527 | 0.504 | 0.607 | 0.461 | 0.432 | 0.467 | 0.538 | 0.4 | 0.462 | 0.861 | 0.86 | 1.04 | 0.849 | 1.05
NCI-H1975 | 1.06 | 0.933 | 1.07 | 0.95 | 0.567 | 0.603 | 0.826 | 0.586 | 0.638 | 0.655 | 0.743 | 0.535 | 0.482 | 0.345 | 0.375 | 0.384 | 0.323 | 0.301
NCI-H1993 | 0.796 | 0.839 | 0.882 | 0.834 | 0.582 | 0.721 | 0.77 | 0.748 | 0.742 | 0.73 | 0.569 | 0.376 | 0.47 | 0.848 | 0.94 | – | – | 0.852
NCI-H2009 | 1.05 | 0.923 | 1.06 | 0.874 | 0.222 | 0.253 | 0.413 | 0.24 | 0.583 | 0.775 | 0.665 | 0.501 | 0.573 | 0.985 | 1.04 | 1.04 | 0.601 | 0.783
NCI-H2023 | 0.616 | 0.592 | 0.686 | 0.156 | 0.379 | 0.337 | 0.4 | 0.0878 | 0.642 | 0.435 | 0.509 | 0.37 | 0.455 | 0.984 | 0.742 | 0.874 | 0.623 | 0.679
NCI-H2085 | 0.866 | 0.842 | 0.859 | 0.776 | 0.455 | 0.484 | 0.5 | 0.458 | 0.557 | 0.402 | 0.517 | 0.398 | 0.341 | 0.824 | 0.659 | 0.766 | 0.393 | 0.458
NCI-H2087 | 0.929 | 0.646 | 0.777 | 0.716 | 0.233 | 0.201 | 0.219 | 0.215 | 0.465 | 0.81 | 0.98 | 0.183 | 0.92 | 0.904 | 0.912 | 0.831 | 0.661 | 1.04
NCI-H2126 | 0.978 | 0.969 | 1.08 | 0.996 | 0.373 | 0.325 | 0.367 | 0.328 | 0.728 | 0.703 | 0.577 | 0.389 | 0.432 | 1.12 | 1.09 | 1.1 | 0.851 | 0.786
NCI-H2228 | 0.529 | 0.396 | 0.479 | 0.334 | 0.63 | 0.808 | 0.835 | 0.509 | 0.482 | 0.302 | 0.798 | 0.555 | 0.904 | 0.754 | 0.986 | 0.91 | 0.849 | 1.13
NCI-H2347 | 0.794 | 0.675 | 0.634 | 0.626 | 0.46 | 0.433 | 0.385 | 0.422 | 0.386 | 0.516 | 0.522 | 0.399 | 0.353 | 0.755 | 0.681 | 0.873 | 0.619 | 0.496
NCI-H2405 | 0.869 | 0.825 | 0.927 | 0.894 | 0.554 | 0.493 | 0.522 | 0.514 | 0.762 | 0.9 | 1.03 | 0.644 | 0.501 | 0.77 | 0.895 | 1.06 | 0.73 | 0.661
NCI-H3122 | 0.256 | 0.305 | 0.293 | 0.267 | 0.207 | 0.21 | 0.216 | 0.209 | 1.01 | 1.1 | 0.829 | 0.84 | 0.796 | 0.87 | 0.989 | 1.1 | 0.803 | 1.09
